From the supplement of paper PMC11061612 come the findings set out here.

The structures appear in SMILES notation.

Common to all, as to assay: Bliss excess, mean over the matrix (fraction); higher = more synergy
Test [1] relates to NCI-H747 (Colorectal Carcinoma). A digest of the protocol:
(§1)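 Cell lines grown in DMEM/F12 or RPMI with 10% FBS were plated in 1536-well plates and held 24 hours at 37°C, 5% CO2 before 72 hours of exposure to two-drug dose matrices, with DMSO typically at 0.2%. CellTiter-Glo 2.0 luminescence gave viability, which was converted to inhibition. Vehicle wells were set to 0 and blank wells to 1. Combination Emax is the second-highest inhibition in the matrix, and Bliss excess is the observed combination effect minus the expected EA + EB − EA·EB, where EA and EB are the single-agent effects.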

The next test has as its system NCI-H2461 (Mesothelioma). In outline:
as §1

Test [2] deals with K5 (Thyroid Gland Carcinoma). In outline:
as §1

In test [3] the test system is CAPAN-1 (Pancreatic Carcinoma). A digest of the protocol:
as §1

The next test relates to NB14 (Neuroblastoma). A digest of the protocol:
as §1

Another test relates to SH-4 (Melanoma). In outline: as §1
For test [4], the system named is MDA-MB-468 (Breast Carcinoma). A digest of the protocol: as §1
For test [5], the system named is RPMI-6666 (Non-Cancerous). In outline:
as §1

As to `CC1(C)CCC(CN2CCN(c3ccc(C(=O)NS(=O)(=O)c4ccc(NCC5CCOCC5)c([N+](=O)[O-])c4)c(Oc4cnc5[nH]ccc5c4)c3)CC2)=C(c2ccc(Cl)cc2)C1` [Venetoclax] + Cc1cc2ncnn2cc1Nc1ncc2c(n1)n(C1CCOCC1)c(=O)n2C [AZD7648] (first compound max 1 µM, 7x7, partner max 10 µM), the Bliss excess in test [1] was -0.0124; in the test with NCI-H2461 (Mesothelioma), -0.0954; in test [2], -0.103; in test [3], -0.0196; in the test with NB14 (Neuroblastoma), -0.0033; in the test on SH-4 (Melanoma) it was -0.0039. Also, the figures for the Bliss excess in test [4] and in test [5] were -0.0299 and -0.0477, respectively.

Consider `CC1(C)CCC(CN2CCN(c3ccc(C(=O)NS(=O)(=O)c4ccc(NCC5CCOCC5)c([N+](=O)[O-])c4)c(Oc4cnc5[nH]ccc5c4)c3)CC2)=C(c2ccc(Cl)cc2)C1` [Venetoclax] + C=CCn1c(=O)c2cnc(Nc3ccc(N4CCN(C)CC4)cc3)nc2n1-c1cccc(C(C)(C)O)n1 [AZD1775] (first compound max 1 µM, partner max 1 µM), for which the Bliss excess in test [1] was -0.0656; with NCI-H2461 (Mesothelioma) it was 0.0234; in test [2], -0.0279; in test [3], -0.0443; in the test on NB14 (Neuroblastoma), 0.0967; with SH-4 (Melanoma), 0.0107. For the same compound, the Bliss excess in test [4] is -0.0308; in test [5], 0.0917.

As to `NC1(C(=O)N[C@@H](CCO)c2ccc(Cl)cc2)CCN(c2ncnc3[nH]ccc23)CC1` [Capivasertib] + C[C@@H]1COCCN1C2=NC(=NC(=C2)C3(CC3)[S@](=N)(=O)C)C4=C5C=CNC5=NC=C4 [AZD6738] (first compound max 10 µM, 7x7, partner max 10 µM), the Bliss excess was -0.0316 in test [1]; -0.0866 with NCI-H2461 (Mesothelioma); -0.0693 in test [2]; -0.0423 in test [3]; -0.032 in the test with NB14 (Neuroblastoma); -0.036 in the test on SH-4 (Melanoma). For the same compound, the results for the Bliss excess in test [4] and in test [5] were -0.0652 and -0.118, respectively.

As to `NC1(C(=O)N[C@@H](CCO)c2ccc(Cl)cc2)CCN(c2ncnc3[nH]ccc23)CC1` [Capivasertib] + CC(=O)c1c(C)c2cnc(Nc3ccc(N4CCNCC4)cn3)nc2n(C2CCCC2)c1=O [Palbociclib] (first compound max 10 µM, 7x7, partner max 10 µM), the Bliss excess in test [1] was -0.0032; in the test with NCI-H2461 (Mesothelioma), -0.0609; in test [2], -0.0106; in test [3], -0.0163; in the test with NB14 (Neuroblastoma), 0.0419; in the test on SH-4 (Melanoma) it was -0.045. Besides, the Bliss excess in test [4] is -0.0075; in test [5] it was -0.0423.

Consider `CN(CCO)CC[C@H](CSc1ccccc1)Nc1ccc(S(=O)(=O)NC(=O)c2ccc(N3CCC([C@@H](O)c4ccccc4-c4ccc(Cl)cc4)CC3)cc2)cc1S(=O)(=O)C(F)(F)F` [AZD4320] + Cn1cnc2c(F)c(Nc3ccc(Br)cc3Cl)c(C(=O)NOCCO)cc21 [Selumetinib] (first compound max 1 µM, 7x7, partner max 3 µM), for which the Bliss excess in test [1] was -0.0306; with NCI-H2461 (Mesothelioma), 0.0248; in test [2] it was -0.0637; in test [3], 0.0665; with NB14 (Neuroblastoma), 0.0033; with SH-4 (Melanoma) it was 0.107. Further, the Bliss excess was -0.0301 in test [4] and -0.0047 in test [5].

In the case of `CC1(C)CCC(CN2CCN(c3ccc(C(=O)NS(=O)(=O)c4ccc(NCC5CCOCC5)c([N+](=O)[O-])c4)c(Oc4cnc5[nH]ccc5c4)c3)CC2)=C(c2ccc(Cl)cc2)C1` [Venetoclax] + CCN(CCO)CCCOc1ccc2c(Nc3cc(CC(=O)Nc4cccc(F)c4)[nH]n3)ncnc2c1 [AZD2811] (first compound max 1 µM, 7x7, partner max 1 µM), the Bliss excess was -0.0429 in test [1]; -0.0587 in the test with NCI-H2461 (Mesothelioma); -0.0231 in test [2]; -0.042 in test [3]; -0.0361 in the test with NB14 (Neuroblastoma); -0.0115 with SH-4 (Melanoma). Also, the values for the Bliss excess in test [4] and in test [5] were -0.086 and 0.189, respectively.

Regarding `CC1(C)CCC(CN2CCN(c3ccc(C(=O)NS(=O)(=O)c4ccc(NCC5CCOCC5)c([N+](=O)[O-])c4)c(Oc4cnc5[nH]ccc5c4)c3)CC2)=C(c2ccc(Cl)cc2)C1` [Venetoclax] + C[C@@H](Nc1cc(F)cc(F)c1)c1cc(C(=O)N(C)C)cc2c(=O)cc(N3CCOCC3)oc12 [AZD8186] (first compound max 1 µM, 7x7, partner max 3 µM), the Bliss excess was 0.0197 in test [1]; 0.0092 in the test on NCI-H2461 (Mesothelioma); -0.111 in test [2]; -0.0594 in test [3]; -0.0644 in the test on NB14 (Neuroblastoma); -0.0214 in the test with SH-4 (Melanoma). Moreover, the Bliss excess in test [4] was -0.0688; in test [5], 0.0617.

Consider `NC1(C(=O)N[C@@H](CCO)c2ccc(Cl)cc2)CCN(c2ncnc3[nH]ccc23)CC1` [Capivasertib] + COc1nnc2ccc(N3CCC(c4ccc(OCCN5CCN(C)C(=O)[C@H]5C)cc4)CC3)nn12 [AZD5153] (first compound max 10 µM, 7x7, partner max 1 µM), for which the Bliss excess is -0.042 in test [1]; -0.0007 in the test with NCI-H2461 (Mesothelioma); 0.0159 in test [2]; -0.0045 in test [3]; -0.0216 in the test with NB14 (Neuroblastoma); -0.0171 in the test with SH-4 (Melanoma). Also, the Bliss excess in test [4] is -0.0281; in test [5], -0.0305.

As for `CC1(C)CCC(CN2CCN(c3ccc(C(=O)NS(=O)(=O)c4ccc(NCC5CCOCC5)c([N+](=O)[O-])c4)c(Oc4cnc5[nH]ccc5c4)c3)CC2)=C(c2ccc(Cl)cc2)C1` [Venetoclax] + C1CN(CCC1(C(=O)N[C@@H](CCO)C2=CC=C(C=C2)Cl)N)C3=NC=NC4=C3C=CN4 [Capivasertib] (first compound max 1 µM, 7x7, partner max 3 µM), the Bliss excess in test [1] is -0.0537; in the test on NCI-H2461 (Mesothelioma) it was -0.0184; in test [2], -0.0618; in test [3], -0.0473; in the test on NB14 (Neuroblastoma), -0.0461; in the test on SH-4 (Melanoma), -0.0592. Also, the results for the Bliss excess in test [4] and in test [5] were -0.0435 and 0.0217, respectively.

Turning to `CC1(C)CCC(CN2CCN(c3ccc(C(=O)NS(=O)(=O)c4ccc(NCC5CCOCC5)c([N+](=O)[O-])c4)c(Oc4cnc5[nH]ccc5c4)c3)CC2)=C(c2ccc(Cl)cc2)C1` [Venetoclax] + C[C@@H]1COCCN1C2=NC(=NC(=C2)C3(CC3)[S@](=N)(=O)C)C4=C5C=CNC5=NC=C4 [AZD6738] (first compound max 1 µM, 7x7, partner max 10 µM), the Bliss excess is -0.0621 in test [1]; -0.026 in the test with NCI-H2461 (Mesothelioma); -0.0758 in test [2]; -0.0674 in test [3]; -0.0005 with NB14 (Neuroblastoma); -0.022 in the test on SH-4 (Melanoma). Also, the Bliss excess in test [4] was -0.028; in test [5], 0.0224.

With `NC1(C(=O)N[C@@H](CCO)c2ccc(Cl)cc2)CCN(c2ncnc3[nH]ccc23)CC1` [Capivasertib] + Cn1cnc2c(F)c(Nc3ccc(Br)cc3Cl)c(C(=O)NOCCO)cc21 [Selumetinib] (first compound max 10 µM, 7x7, partner max 10 µM), the Bliss excess in test [1] was -0.0187; in the test with NCI-H2461 (Mesothelioma), -0.0393; in test [2] it was 0.0944; in test [3], -0.0081; with NB14 (Neuroblastoma) it was -0.0654; in the test with SH-4 (Melanoma) it was -0.0106. Also, the Bliss excess in test [4] is 0.0736; in test [5], 0.0604.

As for `CC1(C)CCC(CN2CCN(c3ccc(C(=O)NS(=O)(=O)c4ccc(NCC5CCOCC5)c([N+](=O)[O-])c4)c(Oc4cnc5[nH]ccc5c4)c3)CC2)=C(c2ccc(Cl)cc2)C1` [Venetoclax] + CN(C)CCCOc1ccc(-c2ccc3ncc4c(c3c2)n(C2CCOCC2)c(=O)n4C)cn1 [AZD0156] (first compound max 1 µM, 7x7, partner max 1 µM), the Bliss excess in test [1] is -0.0497; in the test with NCI-H2461 (Mesothelioma), -0.0535; in test [2], -0.0635; in test [3], -0.0696; in the test on NB14 (Neuroblastoma) it was -0.0017; in the test with SH-4 (Melanoma), -0.0087. In addition, the Bliss excess was -0.0294 in test [4] and -0.0231 in test [5].

`Cc1nc(Nc2ncc(C(=O)Nc3c(C)cccc3Cl)s2)cc(N2CCN(CCO)CC2)n1` [Dasatinib] + CC(=O)Nc1cccc(-n2c(=O)n(C3CC3)c(=O)c3c(Nc4ccc(I)cc4F)n(C)c(=O)c(C)c32)c1 [Trametinib] (first compound max 2 µM, 7x7, partner max 1 µM): the Bliss excess in test [1] is -0.0238; in the test with NCI-H2461 (Mesothelioma), -0.0384; in test [2] it was 0.0175; in test [3] it was 0.0044; in the test on NB14 (Neuroblastoma), -0.065; in the test with SH-4 (Melanoma), -0.0721. Also, the Bliss excess in test [4] was -0.0521; in test [5], 0.0193.

Take `CC1(C)CCC(CN2CCN(c3ccc(C(=O)NS(=O)(=O)c4ccc(NCC5CCOCC5)c([N+](=O)[O-])c4)c(Oc4cnc5[nH]ccc5c4)c3)CC2)=C(c2ccc(Cl)cc2)C1` [Venetoclax] + Cn1cnc2c(F)c(Nc3ccc(Br)cc3Cl)c(C(=O)NOCCO)cc21 [Selumetinib] (first compound max 1 µM, 7x7, partner max 3 µM): the Bliss excess in test [1] is -0.0489; in the test with NCI-H2461 (Mesothelioma), -0.0175; in test [2], -0.0402; in test [3], -0.057; in the test with NB14 (Neuroblastoma) it was -0.0221; in the test with SH-4 (Melanoma) it was -0.0306. The Bliss excess in test [4] is -0.0693; in test [5], 0.0306.

With `CC1(C)CCC(CN2CCN(c3ccc(C(=O)NS(=O)(=O)c4ccc(NCC5CCOCC5)c([N+](=O)[O-])c4)c(Oc4cnc5[nH]ccc5c4)c3)CC2)=C(c2ccc(Cl)cc2)C1` [Venetoclax] + COc1cc(Nc2ncc3c(n2)-c2ccc(Cl)cc2C(c2c(F)cccc2OC)=NC3)ccc1C(=O)O [Alisertib] (first compound max 1 µM, 7x7, partner max 10 µM), the Bliss excess in test [1] was 0.0071; with NCI-H2461 (Mesothelioma) it was -0.0208; in test [2], -0.0455; in test [3], -0.0425; with NB14 (Neuroblastoma), 0.0448; in the test with SH-4 (Melanoma) it was -0.0234. For the same compound, the Bliss excess in test [4] was 0.0409; in test [5], 0.0702.

Regarding `CC(=O)c1c(C)c2cnc(Nc3ccc(N4CCNCC4)cn3)nc2n(C2CCCC2)c1=O` [Palbociclib] + CC1(C)CCC(CN2CCN(c3ccc(C(=O)NS(=O)(=O)c4ccc(NCC5CCOCC5)c([N+](=O)[O-])c4)c(Oc4cnc5[nH]ccc5c4)c3)CC2)=C(c2ccc(Cl)cc2)C1 [Venetoclax] (first compound max 10 µM, 7x7, partner max 1 µM), the Bliss excess in test [1] is 0.017; with NCI-H2461 (Mesothelioma) it was -0.0712; in test [2] it was 0.0216; in test [3], -0.019; in the test on NB14 (Neuroblastoma), -0.0103; in the test on SH-4 (Melanoma) it was -0.0734. Besides, the values for the Bliss excess in test [4] and in test [5] were -0.0241 and -0.0674, respectively.
